SMILES strings stand for the structures.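 Cells were grown in 96-well plates and exposed to each compound for 48 hours at five concentrations; endpoints were interpolated linearly between bracketing concentrations, or set to the highest concentration if not reached. Abbreviation: GI50, concentration required for 50% inhibition of growth.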 Activity calls are given as the source filed them. Rule as the data show it: active = GI50 up to about 1.1 µM and inactive = higher. A value given as a limit tells only on which side of the number the result lay.

The record followed here is ChEMBL document CHEMBL1201862, “PubChem BioAssay data set” (2004).

Test systems include ACHN; CAKI-1; CCRF-CEM; HCT-116; HOP-92; IGROV-1; K562; KM12; Malme-3M; NCI-H23; NCI-H460; OVCAR-3; OVCAR-8; RPMI-8226; SF-268; SF-539; SK-MEL-2; SN12C; SR.
Common to all, as to test: DTP human tumour cell line panel, 48 h

In general, GI50 refers to the concentration at which growth is held to half of that of the control. For the compound `CC(C)Cc1ccc(C(C)/C=C2\CCC(CN3CCCCC3)C2=O)cc1` (configuration not stated), the GI50 in the assay with ACHN is 6.98 µM (inactive); in the assay with CAKI-1 it was 6.87 µM (inactive); in the assay on CCRF-CEM, 1.5 µM (inactive); in the assay with HCT-116, 3.87 µM (inactive); with HOP-92, 10.1 µM (inactive); in the assay with IGROV-1, 4.25 µM (inactive). Besides, the GI50 in the assay on K562 was 2.46 µM (inactive); in the assay on KM12 it was 2.56 µM (inactive); in the assay with Malme-3M, 16.6 µM (inactive); in the assay on NCI-H23 it was 7.29 µM (inactive); in the assay on NCI-H460, 26.7 µM (inactive); with OVCAR-3, 4.03 µM (inactive). The GI50 was 5.18 µM (inactive) in the assay with OVCAR-8; 0.611 µM (active) in the assay with RPMI-8226; 3.66 µM (inactive) in the assay with SF-268; 4.54 µM (inactive) with SF-539; 13.3 µM (inactive) with SK-MEL-2; 2.12 µM (inactive) in the assay with SN12C. Further, the GI50 in the assay on SR is 1.65 µM (inactive).

Regarding `NC(=O)NC1C(C(N)=O)N(Cc2ccccc2)C(=O)N1Cc1ccccc1` (configuration not stated), the GI50 in the assay with ACHN, in the assay on CAKI-1, with CCRF-CEM, with HCT-116, in the assay on HOP-92 and in the assay on IGROV-1 was > 100 µM (inactive) throughout. For the same compound, the GI50 with K562, with KM12, in the assay with Malme-3M, with NCI-H23, in the assay with NCI-H460 and with OVCAR-3 was > 100 µM (inactive) throughout. Moreover, the GI50 in the assay with OVCAR-8, in the assay with RPMI-8226, in the assay on SF-268, in the assay with SF-539, with SK-MEL-2 and in the assay with SR was > 100 µM (inactive) in each case.

With `N#CC(NNC(=O)Cc1ccccc1)c1ccc([N+](=O)[O-])cc1` (configuration not stated), the GI50 is > 100 µM (inactive) with ACHN; > 100 µM (inactive) in the assay on CCRF-CEM; > 100 µM (inactive) in the assay with HCT-116; 55.3 µM (inactive) with HOP-92; > 100 µM (inactive) with IGROV-1; > 100 µM (inactive) with K562. For the same compound, the GI50 with KM12, in the assay with Malme-3M, in the assay on NCI-H23, in the assay on NCI-H460, in the assay on OVCAR-8 and in the assay on RPMI-8226 was > 100 µM (inactive) each time. The GI50 in the assay on SF-268, in the assay with SF-539, in the assay on SK-MEL-2, in the assay on SN12C and with SR was > 100 µM (inactive) throughout.

`Cc1cccc(CC(C)(C)C)c1NC(=O)C(=O)C(C(=O)c1ccc2ccccc2c1)C1OC(=O)c2ccccc21` (configuration not stated): the GI50 is 18 µM (inactive) in the assay with ACHN; 19.2 µM (inactive) in the assay with CAKI-1; 6.73 µM (inactive) in the assay with HCT-116; 1.14 µM (inactive) in the assay on HOP-92; 16.7 µM (inactive) in the assay on IGROV-1; 14.5 µM (inactive) in the assay on KM12. In addition, the GI50 in the assay on Malme-3M is 10.8 µM (inactive); in the assay with NCI-H23 it was 6.35 µM (inactive); in the assay with NCI-H460, 4.13 µM (inactive); in the assay with OVCAR-3 it was 58.5 µM (inactive); in the assay on OVCAR-8, 6.58 µM (inactive); in the assay with RPMI-8226, 10.1 µM (inactive). The GI50 is 8.53 µM (inactive) with SF-268; 2.95 µM (inactive) in the assay with SF-539; 14.4 µM (inactive) in the assay with SK-MEL-2; 15.8 µM (inactive) in the assay on SN12C; 3.72 µM (inactive) with SR.

With `CC1=CC(=O)NP(=O)(Oc2ccc(Cl)cc2)N1` (configuration not stated), the GI50 in the assay on ACHN, in the assay on CAKI-1, with CCRF-CEM, in the assay on HCT-116, in the assay with HOP-92 and with IGROV-1 was > 100 µM (inactive) throughout. For the same compound, the GI50 in the assay with K562 was 89.3 µM (inactive); in the assay on KM12, > 100 µM (inactive); in the assay with Malme-3M it was > 100 µM (inactive); in the assay on NCI-H23 it was > 100 µM (inactive); in the assay with NCI-H460, > 100 µM (inactive); with OVCAR-3, > 100 µM (inactive). The GI50 in the assay on OVCAR-8, in the assay with RPMI-8226, in the assay with SF-268, with SF-539, with SK-MEL-2 and in the assay with SN12C was > 100 µM (inactive) each time. Besides, the GI50 with SR is > 100 µM (inactive).

For the compound `CCOC(=O)C1=C(OC(OCC)C(CC)[Se]c2ccccc2)CCC1` (configuration not stated), the GI50 with ACHN is 32.2 µM (inactive); in the assay on CAKI-1, 44.2 µM (inactive); with CCRF-CEM, 11 µM (inactive); in the assay on HCT-116 it was 20.4 µM (inactive); in the assay on HOP-92, 19.3 µM (inactive); in the assay with IGROV-1, 25.6 µM (inactive). In addition, the GI50 is 44 µM (inactive) with K562; 39.4 µM (inactive) in the assay on KM12; 4.58 µM (inactive) in the assay on Malme-3M; 12.5 µM (inactive) in the assay on NCI-H23; 39.7 µM (inactive) in the assay with NCI-H460; 23.7 µM (inactive) in the assay on OVCAR-3. The GI50 in the assay on OVCAR-8 was 33.2 µM (inactive); in the assay on RPMI-8226, 19.3 µM (inactive); with SF-268, 18.7 µM (inactive); with SF-539, 19.8 µM (inactive); with SK-MEL-2 it was 31.5 µM (inactive); with SN12C, 17.1 µM (inactive). Moreover, the GI50 in the assay on SR is 19.3 µM (inactive).

Consider `C/C(=N\N(c1ccccc1)c1ccccc1)c1c(O)cc(C)oc1=O`, for which the GI50 was > 100 µM (inactive) with ACHN; 90.2 µM (inactive) with CAKI-1; 89.7 µM (inactive) in the assay on CCRF-CEM; 45.1 µM (inactive) in the assay with HCT-116; 46.3 µM (inactive) in the assay on HOP-92; 62.7 µM (inactive) in the assay on K562. The GI50 in the assay on KM12 was > 100 µM (inactive); in the assay on Malme-3M, > 100 µM (inactive); with NCI-H23 it was 40.1 µM (inactive); in the assay with NCI-H460, 46.5 µM (inactive); with OVCAR-8, > 100 µM (inactive); with SF-268 it was > 100 µM (inactive). Also, the GI50 with SF-539 is 67.8 µM (inactive); in the assay with SK-MEL-2, > 100 µM (inactive); in the assay with SN12C it was > 100 µM (inactive); in the assay with SR, 56.9 µM (inactive).

Turning to `Cc1cc(C(=O)NCCN(C)C)c2nc3ccccc3nc2c1`, the GI50 is 2.22 µM (inactive) in the assay with ACHN; 1.48 µM (inactive) with HCT-116; 1.06 µM (active) in the assay on HOP-92; 4.81 µM (inactive) in the assay with IGROV-1; 2.05 µM (inactive) in the assay on K562; 3.91 µM (inactive) in the assay with KM12. In addition, the GI50 in the assay with Malme-3M was 3.21 µM (inactive); with NCI-H23, 5.27 µM (inactive); in the assay with OVCAR-3, 5.71 µM (inactive); in the assay with OVCAR-8, 4.81 µM (inactive); in the assay on RPMI-8226, 3.15 µM (inactive); in the assay on SF-539 it was 4.31 µM (inactive). In addition, the figures for the GI50 with SK-MEL-2, in the assay on SN12C and in the assay on SR were 4.33 µM (inactive), 3.45 µM (inactive) and 0.453 µM (active), respectively.

Regarding `O=[N+]([O-])c1cccc(C2SCc3nc4ccccc4n32)c1` (configuration not stated), the GI50 is 62.7 µM (inactive) in the assay on ACHN; 21.8 µM (inactive) in the assay on CAKI-1; > 100 µM (inactive) in the assay with CCRF-CEM; 19 µM (inactive) in the assay on HOP-92; 33 µM (inactive) with IGROV-1; 49.5 µM (inactive) with K562. The GI50 was > 100 µM (inactive) in the assay with KM12; 54.1 µM (inactive) in the assay with Malme-3M; 64.4 µM (inactive) in the assay with NCI-H23; > 100 µM (inactive) with NCI-H460; > 100 µM (inactive) in the assay with OVCAR-8; > 100 µM (inactive) in the assay with SF-268. For the same compound, the GI50 in the assay with SF-539 is > 100 µM (inactive); in the assay with SK-MEL-2, > 100 µM (inactive); in the assay on SN12C it was 97.3 µM (inactive); in the assay with SR, 82.4 µM (inactive).

Turning to `N#CC1C2CCC3(CC2CCN1C(=O)c1ccccc1)OCCO3` (configuration not stated), the GI50 with ACHN, in the assay on CCRF-CEM, with HCT-116, in the assay on HOP-92, in the assay on IGROV-1 and in the assay with K562 was > 100 µM (inactive) throughout. In addition, the GI50 with KM12, with Malme-3M, in the assay with NCI-H23, in the assay with NCI-H460, in the assay with OVCAR-3 and in the assay with OVCAR-8 was > 100 µM (inactive) in each case. For the same compound, the GI50 in the assay with RPMI-8226 was > 100 µM (inactive); in the assay with SF-268, > 100 µM (inactive); with SF-539, > 100 µM (inactive); in the assay on SK-MEL-2, 2.37 µM (inactive); in the assay with SN12C, > 100 µM (inactive); with SR, > 100 µM (inactive).

On to `N/N=C1\C(=O)N(Cc2ccccc2)C(=O)C1C(=O)NCc1ccccc1` (configuration not stated), for which the GI50 in the assay on ACHN, in the assay on CCRF-CEM, in the assay on HCT-116, with HOP-92, in the assay on IGROV-1 and with K562 was > 100 µM (inactive) each time. In addition, the GI50 with KM12, in the assay with Malme-3M, in the assay with NCI-H23, in the assay with NCI-H460, in the assay on OVCAR-3 and in the assay on OVCAR-8 was > 100 µM (inactive) throughout. In addition, the GI50 in the assay with RPMI-8226, with SF-268, in the assay on SF-539, with SK-MEL-2, in the assay with SN12C and with SR was > 100 µM (inactive) throughout.
